Experiment [1] relates to Laodelphax striatella. Kind of experiment: Insecticidal test on Laodelphax striatella (rice seedling dip). It counts as in vivo. The conditions noted are these: Laodelphax striatellus, 192 h, rice seedlings dipped 30 seconds, 3rd-instar larvae, 8 days after inoculation, read-out: insecticidal effect (corrected mortality rate), activity level. The text has this:
Insecticidal test on Laodelphax striatella
The heterocycle-bound condensed heterocyclic compounds represented by the general formula (1) of the present invention or salts thereof were separately dispersed in water and diluted to 500 ppm. Rice plant seedlings (variety: Nihonbare) were dipped in the agrochemical dispersions for 30 seconds. After air-dried, each seedling was put into a separate glass test tube and inoculated with ten 3rd-instar larvae of Laodelphax striatella, and then the glass test tubes were capped with cotton plugs. At 8 days after the inoculation, the numbers of surviving larvae and dead larvae were counted, the corrected mortality rate was calculated according to the formula shown below, and the insecticidal effect was evaluated according to the criteria shown below. Corrected mortality rate (%)=100×(Survival rate in a non-treatment plot−Survival rate in a treatment plot)/Survival rate in a non-treatment plot [Math. 2] Criteria A: the corrected mortality rate is 100%. B: the corrected mortality rate is 90 to 99%. C: the corrected mortality rate is 80 to 89%. D: the corrected mortality rate is 50 to 79%.

The subject of experiment [2] is Plutella xylostella. The experiment is described as follows: Insecticidal test on Plutella xylostella (dip of Chinese cabbage seedlings with laid eggs). It counts as in vivo. The conditions noted are these: 144 h, seedlings with laid eggs dipped about 30 seconds, 25° C., 6 days after dip treatment, read-out: insecticidal effect (corrected mortality rate), activity level. The text has this:
Insecticidal Test on Plutella xylostella
Adults of Plutella xylostella were released onto Chinese cabbage seedlings and allowed to lay eggs thereon. At 2 days after the release of the adults, the Chinese cabbage seedlings with laid eggs were dipped for about 30 seconds in agrochemical dispersions diluted to 500 ppm, each of which contained a different kind of heterocycle-bound condensed heterocyclic compound represented by the general formula (1) of the present invention as an active ingredient. After air-dried, the seedlings were kept in a thermostatic chamber at 25° C. At 6 days after the dip treatment, the number of hatched larvae per plot was counted, the mortality rate was calculated according to the formula shown below, and the insecticidal effect was evaluated according to the criteria of Test Example 2. This test was conducted in triplicate using 10 adults of Plutella xylostella per plot. Corrected mortality rate (%)=100×(Number of hatched larvae in a non-treatment plot−Number of hatched larvae in a treatment plot)/Number of hatched larvae in a non-treatment plot [Math. 3]

In patent publication US11208410B2, “Heterocycle-bound condensed heterocyclic compound or salt thereof, agricultural and horticultural insecticide comprising the compound, and method for using the insecticide” (Nihon Nohyaku Co., Ltd., priority 2016, dated 2021) one finds mortality data, which are given here for two compounds.

Consider `CCS(=O)(=O)c1cc(-c2nc(-c3ccccc3)no2)cnc1-c1nc2cc(C(F)(F)C(F)(F)F)nnc2n1C` [Compound 2-56, 5-{2-(3-Methyl-6-pentafluoroethyl-3H-imidazo[4,5-C]pyridazin-2-yl)-3-(ethylsulfonyl)pyridin-5-yl}-3-phenyl-1,2,4-oxadiazole], for which the mortality at 500 ppm in experiment [1] and in experiment [2] was 100% each time.

Turning to `CCS(=O)(=O)c1cc(-c2noc(C(F)(F)F)n2)cnc1-c1nc2cc(C(F)(F)C(F)(F)F)nnc2n1C` [Compound 1-41, 3-{2-(3-Methyl-6-pentafluoroethyl-3H-imidazo[4,5-C]pyridazin-2-yl)-3-(ethylsulfonyl)pyridin-5-yl}-5-trifluoromethyl-1,2,4-oxadiazole], the mortality at 500 ppm in experiment [1] and in experiment [2] was 100% in each case.
